In PMC6271425, “Synthesis and Sar Study of Diarylpentanoid Analogues as New Anti-Inflammatory Agents” (Molecules, 2014):
Read-outs that look alike come from different tables or passages of the source.

Columns and labels:
Format in all cases: cell-based, murine
[1] = system: NO production in IFN-γ/LPS-stimulated RAW 264.7 macrophages; assay: NO suppression (Griess nitrite determination) in IFN-γ/LPS-stimulated RAW 264.7 macrophages; conditions: for NO Inhibition at 50 µM (%) ± S.E.M: 50 µM test concentration; for inhibition at 50 µM: RAW264.7, 50 µM test concentration, read-out: NO Inhibition at 50 µM (%) ± S.E.M
Description: The synthesized compounds were screened for NO suppression activity in IFN-γ/LPS-stimulated RAW 264.7 macrophages at a 50 µM test concentration. […] The IC50 values of the fifty-seven bioactive compounds were determined and compared to that of the positive control, curcumin. An MTT assay was also carried out to confirm that NO inhibition was not due to cytotoxicity. […] The complete bioassay results of all the compounds are provided as Table S2 in Supplementary Data. RAW 264.7 murine macrophages cells obtained from American Type Culture Collection (ATCC, Rockville, MD, USA) were grown in Dulbecco’s Modified Eagle’s Medium (DMEM) containing 10% fetal bovine serum (FBS) and 1% penicillin/streptomycin in a 95% air and 5% CO2 atmosphere at 37 °C. RAW 264.7 cells at 90%–95% confluency were detached and seeded (50,000 cells/well) into a 96-well culture plate with 50 μL of DMEM and incubated for 24 h. The cells were then stimulated in […] of LPS (Escherichia coli, serotype 0111:B4) and 1 ng/ml of interferon-gamma (IFN-γ) in the presence or absence of test compounds for 17 h. Nitrite concentration was then determined by Griess assay by reacting 50 μL of cell culture supernatant with 50 μL of Griess reagent (1% sulfanilamide and 0.1% N-(1-naphthyl)ethylenediamine dihydrochloride in 2.5% phosphoric acid) at room temperature. The optical density was measured at 550 nm after 5 min of incubation at room temperature with a microplate reader.

[2] = Cell cytotoxicity determination (MTT assay); conditions: mouse, RAW 264.7 macrophage cells, RAW 264.7 cells, read-out: Cytotoxicity IC50 (µM) ± S.E.M
Description: (§1) The synthesized compounds were screened for NO suppression activity in IFN-γ/LPS-stimulated RAW 264.7 macrophages at a 50 µM test concentration. […] The IC50 values of the fifty-seven bioactive compounds were determined and compared to that of the positive control, curcumin. An MTT assay was also carried out to confirm that NO inhibition was not due to cytotoxicity. […] The complete bioassay results of all the compounds are provided as Table S2 in Supplementary Data.
(§2) RAW 264.7 murine macrophages cells obtained from American Type Culture Collection (ATCC, Rockville, MD, USA) were grown in Dulbecco’s Modified Eagle’s Medium (DMEM) containing 10% fetal bovine serum (FBS) and 1% penicillin/streptomycin in a 95% air and 5% CO2 atmosphere at 37 °C.
(§3) Supernatant in each well was removed followed by addition of 100 µL DMEM. Subsequently, 20 µL of 3-(4,5-dimethylthiazol-2-yl)-2,5-diphenyltetrazolium bromide (MTT, 5 mg/mL) was then added and the plate was incubated in a 95% air and 5% CO2 atmosphere at 37 °C for 4 h. The mixture of culture media and MTT in all wells were removed and the purplish formazan crystals formed were dissolved in dimethyl sulfoxide (DMSO) and further incubated for 15 min at room temperature. The color intensity was then measured at 570 nm at room temperature.

[3] = system: RAW 264.7 cells; assay: Cell cytotoxicity determination (MTT assay); conditions: read-out: Cytotoxicity IC50 (µM) ± S.E.M
Description: as §1, §2, §3

[4] = IFN-γ/LPS-stimulated RAW 264.7 cells
[5] = IFN-γ/LPS-stimulated RAW 264.7 cells, read-out: NO Inhibition IC50 (µM) ± S.E.M
[6] = Mus musculus, IFN-γ/LPS-stimulated RAW 264.7 cells
[7] = Mus musculus, RAW264.7, IFN-γ/LPS-stimulated RAW 264.7 cells, read-out: NO Inhibition IC50 (µM) ± S.E.M
[8] = Mus musculus, RAW264.7, Table 6, NO suppression IC50 used for QSAR, unit inferred, read-out: IC50
[9] = Mus musculus, RAW264.7, −log IC50 of NO suppression, read-out: pIC50 (converted)

Structure (SMILES) | NO Inhibition at 50 µM (%) ± S.E.M [1, 4] | IC50 [1, 5] | inhibition at 50 µM [1, 6] | IC50 [1, 7] | IC50 [1, 8] | IC50 [1, 9] | IC50 [2] | IC50 [3]
O=C(/C=C(O)/C=C/c1ccc(O)cc1)c1ccccc1O [Compound 81] | 91.5 ± 3.9% | < 20 µM | 91.5 ± 3.86% | 19.1 ± 0.644 µM | 19.1 ± 0.6 µM | 19.1 µM | 94.13 ± 0.917 µM | > 100 µM
O=C(/C=C(O)/C=C/c1ccccc1O)c1cc(Cl)ccc1O [Compound 84] |  | < 20 µM | 95.2 ± 0.9% | 15.9 ± 0.947 µM | 15.9 ± 0.9 µM | 15.8 µM | 40.9 ± 1.63 µM | 53.1 ± 1 µM
O=C(/C=C(O)/C=C/c1cccc(O)c1)c1ccccc1O [Compound 80] | 97.2 ± 0.7% |  | 97.22 ± 0.69% | 30.8 ± 0.722 µM | 30.8 ± 0.7 µM | 30.9 µM | 85 ± 1.44 µM | 67.3 ± 0.6 µM
O=C(/C=C(O)/C=C/c1cccc(O)c1)c1ccc(O)cc1O [Compound 94] | 95.4 ± 1.5% |  | 95.4 ± 1.45% | 24.8 ± 0.4 µM | 24.8 ± 0.4 µM | 24.5 µM | 70.1 ± 1.8 µM | 70.1 ± 1.8 µM
COc1ccc(C(=O)/C=C(O)/C=C/c2ccccc2OC)c(O)c1 [Compound 48] | 66.3 ± 6.8% |  | 66.3 ± 6.75% | 39 ± 1.24 µM | 39 ± 1.2 µM | 38.9 µM | 88.5 ± 2.54 µM | 88.6 ± 2.5 µM
O=C(/C=C(O)/C=C/c1cccc(O)c1)c1cc(Cl)ccc1O [Compound 85] | 95.9 ± 0.5% |  | 95.86 ± 0.45% | 26.9 ± 0.796 µM | 26.9 ± 0.8 µM | 26.9 µM | 53.1 ± 0.973 µM | 89.1 ± 1.1 µM
O=C(/C=C(O)/C=C/c1ccc(Cl)s1)c1ccccc1O [Compound 17] |  |  | 63.8 ± 2.6% | 36.4 ± 1.8 µM | 36.4 ± 1.8 µM | 36.3 µM | 67.8 ± 2.87 µM | 67.9 ± 2.9 µM
O=C(/C=C(O)/C=C/c1cc(O)ccc1O)c1cc(Cl)ccc1O [Compound 87] | 96.5 ± 1.4% |  | 96.5 ± 1.42% | 32.3 ± 0.865 µM | 32.3 ± 0.9 µM | 32.4 µM | 66 ± 1.21 µM | 49.5 ± 1.7 µM
O=C(/C=C(O)/C=C/c1ccccc1O)c1cc(O)ccc1O [Compound 89] | 83.6 ± 2.0% |  | 83.6 ± 2% | 31 ± 2 µM |  | 30.9 µM | 67.3 ± 0.552 µM | 72.6 ± 2.6 µM
O=C(/C=C(O)/C=C/c1ccccc1O)c1ccccc1O [Compound 79] | 95.5 ± 0.6% |  | 95.46 ± 0.59% | 28.9 ± 1.5 µM | 28.9 ± 1.5 µM | 28.8 µM | 72.6 ± 2.61 µM | 56.4 ± 1.2 µM
O=C(/C=C(O)/C=C/c1ccccc1)c1ccc(O)cc1O [Compound 93] | 94.7 ± 2.3% |  | 94.7 ± 2.28% | 29.9 ± 0.444 µM | 29.9 ± 0.4 µM | 30.2 µM | 59.46 ± 0.511 µM | 59.5 ± 0.5 µM
O=C(/C=C(O)/C=C/c1cccc(O)c1)c1cc(O)ccc1O [Compound 90] | 90.9 ± 2.0% |  | 90.9 ± 2.02% |  |  | 35.5 µM | > 100 µM | 85 ± 1.4 µM
O=C(/C=C(O)/C=C/c1ccco1)c1cc(O)ccc1O [Compound 91] | 83.6 ± 2.8% |  | 83.6 ± 2.84% | 75 ± 4.9 µM | 75 ± 4.9 µM | 74.1 µM | > 100 µM | 94.1 ± 0.9 µM
O=C(/C=C(O)/C=C/c1ccc(O)cc1)c1cc(Cl)ccc1O [Compound 86] | 90.3 ± 2.7% | < 20 µM | 90.3 ± 2.66% | 18.7 ± 0.786 µM | 18.7 ± 0.8 µM | 18.6 µM | 89.1 ± 1.08 µM | 66 ± 1.2 µM
O=C(/C=C(O)/C=C/c1cccs1)c1cc(Cl)ccc1O [Compound 35] | 68.8 ± 4.2% |  | 68.8 ± 4.21% | 32.17 ± 0.176 µM | 32.2 ± 0.2 µM | 32.4 µM | > 100 µM | 
COc1cccc(/C=C/C(O)=C/C(=O)c2ccc(OC)cc2O)c1 [Compound 49] | 57.5 ± 6.5% |  | 57.5 ± 6.45% | 45.8 ± 0.804 µM | 45.8 ± 0.8 µM | 45.7 µM | > 100 µM | 
O=C(/C=C(O)/C=C/c1ccccc1Cl)c1ccccc1O [Compound 2] |  |  | 91 ± 2.9% | 27.32 ± 0.234 µM | 27.3 ± 0.2 µM | 27.5 µM | > 100 µM | 
COc1ccc(C(=O)/C=C(O)/C=C/c2ccc(OC)c(OC)c2)c(O)c1 [Compound 51] | 58.9 ± 2.8% |  | 58.9 ± 2.76% | 21.7 ± 0.5 µM | 21.7 ± 0.5 µM | 21.9 µM | > 100 µM | 
COc1cccc(/C=C/C(O)=C/C(=O)c2ccccc2O)c1 [Compound 6] | 81.6 ± 4.0% |  | 81.6 ± 3.97% | 31.6 ± 0.632 µM | 31.6 ± 0.6 µM | 31.6 µM | > 100 µM | 
COc1cc(/C=C/C(O)=C/C(=O)c2cc(Cl)ccc2O)cc(OC)c1OC [Compound 28] |  | < 20 µM | 89.5 ± 5.9% | 13.6 ± 0.532 µM | 13.6 ± 0.5 µM | 13.5 µM | > 100 µM | 
O=C(/C=C(O)/C=C/c1cccc(Br)c1)c1ccccc1O [Compound 4] | 88.4 ± 3.2% |  | 88.4 ± 3.21% | 29.4 ± 0.7 µM | 29.4 ± 0.7 µM | 29.5 µM | > 100 µM | 
O=C(/C=C(O)/C=C/c1ccco1)c1ccccc1O [Compound 12] | 82.0 ± 3.2% |  | 82 ± 3.18% | 49 ± 1.05 µM | 49 ± 1 µM | 49 µM | > 100 µM | 
COc1ccc(/C=C/C(O)=C/C(=O)c2cc(OC)ccc2O)c(OC)c1 [Compound 68] | 79.5 ± 4.7% |  | 79.5 ± 4.71% | 33.4 ± 0.695 µM | 33.4 ± 0.7 µM | 33.1 µM | > 100 µM | 
O=C(/C=C(O)/C=C/c1cccc(Cl)c1)c1cc(Cl)ccc1O [Compound 23] | 66.6 ± 4.1% |  | 66.6 ± 4.11% | 36.2 ± 0.922 µM | 36.2 ± 0.9 µM | 36.3 µM | 68.4 ± 2.2 µM | 
Cc1ccc(/C=C/C(O)=C/C(=O)c2ccccc2O)s1 [Compound 18] | 58.9 ± 5.8% |  | 58.9 ± 5.76% | 39.6 ± 4.13 µM | 39.6 ± 4.1 µM | 39.8 µM | > 100 µM | 
COc1ccc(C(=O)/C=C(O)/C=C/c2ccccc2)c(O)c1 [Compound 45] |  |  | 87.9 ± 5.1% | 29.5 ± 0.469 µM | 29.5 ± 0.5 µM | 29.5 µM | > 100 µM | 
